Laboratory results reported in patent US20260297060A1, “COMPOUNDS FOR THE DEGRADATION OF MUTANT BRAF” (C4 THERAPEUTICS, INC., priority 2023, published 2026).
Like-named read-outs stand apart in the source and are kept apart here.

Experiments:
[1] = molecular target: T1, BRAF V600E (Homo sapiens, UniProt P15056+Q96SW2, V600E); assay: BRAF V600E HiBiT Degradation Assay; type: cell-based
T1 construct: knock-in of the HiBiT tag to the endogenous BRAF V600E locus; host or cells: A375.10 (A375 clonal line, CRISPR HiBiT knock-in at the endogenous BRAF V600E locus)
T1 sequence (P15056 whole entry V600E): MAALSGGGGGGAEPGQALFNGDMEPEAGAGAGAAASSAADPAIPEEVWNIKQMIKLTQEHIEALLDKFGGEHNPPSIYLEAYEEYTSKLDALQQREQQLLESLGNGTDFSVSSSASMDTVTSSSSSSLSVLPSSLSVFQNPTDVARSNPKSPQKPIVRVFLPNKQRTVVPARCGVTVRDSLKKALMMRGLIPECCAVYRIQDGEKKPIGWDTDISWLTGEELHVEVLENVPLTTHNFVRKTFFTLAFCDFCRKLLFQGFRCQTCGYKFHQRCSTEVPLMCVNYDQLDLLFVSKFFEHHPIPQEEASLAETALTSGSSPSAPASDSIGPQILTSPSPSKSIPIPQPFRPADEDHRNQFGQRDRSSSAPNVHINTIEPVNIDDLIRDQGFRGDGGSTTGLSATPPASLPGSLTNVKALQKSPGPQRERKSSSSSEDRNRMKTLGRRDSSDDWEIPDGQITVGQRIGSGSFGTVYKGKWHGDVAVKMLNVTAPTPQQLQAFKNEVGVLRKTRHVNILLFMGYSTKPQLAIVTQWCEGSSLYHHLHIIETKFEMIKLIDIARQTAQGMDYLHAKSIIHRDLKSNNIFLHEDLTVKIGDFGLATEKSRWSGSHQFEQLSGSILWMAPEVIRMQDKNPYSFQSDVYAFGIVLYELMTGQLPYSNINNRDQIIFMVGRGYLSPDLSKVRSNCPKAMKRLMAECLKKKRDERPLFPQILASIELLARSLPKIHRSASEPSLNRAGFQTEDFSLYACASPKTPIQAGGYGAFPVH
T1 sequence (Q96SW2 whole entry): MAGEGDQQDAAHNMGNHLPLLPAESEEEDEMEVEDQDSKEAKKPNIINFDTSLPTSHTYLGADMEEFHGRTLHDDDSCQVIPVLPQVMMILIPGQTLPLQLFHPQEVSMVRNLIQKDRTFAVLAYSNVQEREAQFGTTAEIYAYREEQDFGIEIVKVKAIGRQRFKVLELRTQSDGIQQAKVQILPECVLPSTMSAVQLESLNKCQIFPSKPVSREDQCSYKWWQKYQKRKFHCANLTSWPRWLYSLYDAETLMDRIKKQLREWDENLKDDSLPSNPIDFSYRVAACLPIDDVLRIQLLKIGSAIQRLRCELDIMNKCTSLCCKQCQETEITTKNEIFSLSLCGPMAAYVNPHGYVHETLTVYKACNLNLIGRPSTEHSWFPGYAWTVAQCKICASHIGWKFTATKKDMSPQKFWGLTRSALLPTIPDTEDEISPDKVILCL
T1 sequence (Q16531 whole entry partner): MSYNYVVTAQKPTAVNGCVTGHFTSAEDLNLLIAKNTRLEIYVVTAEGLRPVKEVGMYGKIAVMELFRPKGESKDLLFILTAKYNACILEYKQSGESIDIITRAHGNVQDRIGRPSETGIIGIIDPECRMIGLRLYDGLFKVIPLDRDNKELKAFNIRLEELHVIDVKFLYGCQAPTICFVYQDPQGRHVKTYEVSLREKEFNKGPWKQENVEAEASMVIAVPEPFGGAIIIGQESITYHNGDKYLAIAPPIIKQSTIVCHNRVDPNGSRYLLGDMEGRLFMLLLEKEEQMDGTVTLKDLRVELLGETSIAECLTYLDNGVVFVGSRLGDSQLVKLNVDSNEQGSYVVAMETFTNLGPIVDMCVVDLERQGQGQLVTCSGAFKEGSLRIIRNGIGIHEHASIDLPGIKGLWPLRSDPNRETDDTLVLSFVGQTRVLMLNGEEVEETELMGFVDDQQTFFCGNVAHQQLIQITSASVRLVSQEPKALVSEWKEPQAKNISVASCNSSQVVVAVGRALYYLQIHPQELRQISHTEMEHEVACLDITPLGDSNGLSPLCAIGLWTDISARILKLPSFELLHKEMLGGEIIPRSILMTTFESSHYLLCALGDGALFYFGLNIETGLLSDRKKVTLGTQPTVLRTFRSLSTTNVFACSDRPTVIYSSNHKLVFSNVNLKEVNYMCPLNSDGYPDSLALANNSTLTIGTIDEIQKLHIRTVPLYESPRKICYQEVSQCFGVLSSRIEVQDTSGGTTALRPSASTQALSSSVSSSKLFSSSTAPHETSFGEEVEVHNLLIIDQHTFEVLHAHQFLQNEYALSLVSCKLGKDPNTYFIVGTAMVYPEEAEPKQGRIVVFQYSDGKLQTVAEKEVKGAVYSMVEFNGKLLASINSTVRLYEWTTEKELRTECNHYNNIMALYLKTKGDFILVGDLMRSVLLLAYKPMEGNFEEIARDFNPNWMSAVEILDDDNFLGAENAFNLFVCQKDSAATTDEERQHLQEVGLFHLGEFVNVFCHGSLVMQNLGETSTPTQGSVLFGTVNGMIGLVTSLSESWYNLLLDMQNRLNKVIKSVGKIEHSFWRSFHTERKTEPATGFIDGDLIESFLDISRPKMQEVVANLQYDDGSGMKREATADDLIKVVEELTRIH
Protocol: Compounds of this invention were tested for degradation of mutant BRAF V600E using the HiBiT assay, a luminescence-based assay for quantification of cellular protein levels using the Nano-Glo® HiBiT Lytic Detection System (Catalog No. N3050, Promega, Madison, WI USA). This assay utilizes the HiBiT tag on a protein of interest, which creates a luminescent signal in the presence of a complementing peptide and its substrate, the quantification of which is proportional to the amount of HiBiT-tagged protein in the cell.
The cell line A375, which is homozygous for the BRAF V600E mutation, was purchased from ATCC (Catalog No. CRL-1619, Manassas, VA, USA). A375 cells were engineered to express HiBiT tagged BRAF V600E by CRISPR knock-in of the HiBiT tag to the endogenous BRAF V600E locus, followed by selection of a clonal population containing the appropriate knock-in (referred to here as cell line A375.10). A375.10 cells were maintained at 37° C. in an atmosphere of 5% CO2 in Dulbecco's modified Eagle Medium (DMEM) with high glucose (Catalog No. 11965092), supplemented with 10% fetal bovine serum (FBS; Catalog No. 10437036), and 10 mM HEPES (Catalog No. 15630130), all obtained from Thermofisher Scientific (Waltham, MA, USA). Cell culture flasks and 384-well microplates were acquired from VWR (Radnor, PA, USA).
Test compounds were prepared by dissolving neat compounds in DMSO (Catalog No. D8418, Sigma-Aldrich, Inc., St. Louis, MO, USA) to generate 10 mM stock solutions, which were serially diluted (half log) in DMSO to generate an 11-point dose series (1000× final treatment concentration) in a 384-Well Low Dead Volume Microplate (Catalog No. LP-0200, Labcyte, San Jose, CA, USA). Using the Echo 550 Acoustic Liquid Handler (Labcyte), 30 nL of serially diluted compound solutions were dispensed in duplicate to 384-well TC-treated microplates (Catalog No. 3571, Corning, Glendale, CA, USA) and 30 nL of DMSO was dispensed to control wells. A375.10 cells resuspended in growth media without phenol red (Catalog No. 21063-029, Thermofisher Scientific) were then added to 384-well plates containing the 11-point dose series of compounds in duplicate (maximum 10 μM concentration for final treatment) at a density of 12,000 cells/well in 30 μl. Plates were then spun briefly, and cells were incubated with compound at 37° C. for 2 hours, 6 hours, or 24 hours.
Following the appropriate treatment time, Nano-Glo® HiBiT Lytic Assay reagents were added to the cells per the manufacturer's instructions by adding 30 μl of reagent per well, and the luminescence signal was acquired by plate reader. Cells treated with DMSO only (no test compound treatment) were used as the negative control (N). Media only (no cells added) with Nano-Glo reagent addition was used as the background or positive control (P). The percent response of compound treated samples were calculated by subtracting out the background signal (P) and normalizing to the DMSO control (N) as follows.
% Response=100×(Treated Signal−Average (P))/(Average (N)−Average (P)).
Data were analyzed with a 4-parameter logistic fit to generate sigmoidal dose-response curves. The DC50 is the concentration of compound at which 50% of the cellular BRAF V600E has been degraded. The Emax, or maximum effect of each compound, represents the amount of residual protein remaining in the cell following compound treatment. The IP, or inflection point of the dose-response curve, is the concentration of compound at which 50% of the observed degradation response is achieved.
The experiment was conducted at least once for each compound. If the experiment was conducted multiple times, the data shown in the table is the average of the two or more experiments.

[2] = test system: A375-NRAS^Q61K cells; assay: CTGlo Cell Viability Assay, A375-NRAS^Q61K (A375.11) cells, 96 hours; type: cell-based, human; settings: A375.11 (A375-NRAS^Q61K) cells; for Emax / CTGlo A375.11 96 hours Emax: lowest % viability achieved
Protocol: Compounds of this invention were tested for their effect on the viability of A375-NRAS^Q61K cells by quantification of ATP using the CellTiter-Glo® 2.0 Cell Viability Assay (Catalog No. G9243, Promega, Madison, WI, USA). This assay produces a luminescent signal in the presence of ATP, which is indicative of metabolically active cells, making the luminescence readout proportional to the number of viable cells.
A375-NRAS^Q61K cells (harboring BRAF homozygous V600E mutation and NRAS homozygous Q61K mutation) were purchased from ATCC (Catalog No. CRL-1619IG-2, Manassas, VA, USA). A375-NRAS^Q61K cells (also referred to here as A375.11) were maintained at 37° C. in an atmosphere of 5% CO2 in Dulbecco's modified Eagle Medium (DMEM) with high glucose (Catalog No. 11965092), supplemented with 10% fetal bovine serum (FBS; Catalog No. 10437036), and 10 mM HEPES (Catalog No. 15630130), all obtained from Thermofisher Scientific (Waltham, MA, USA). Cell culture flasks and 384-well microplates were acquired from VWR (Radnor, PA, USA).
Test compounds were prepared by dissolving neat compounds in DMSO (Catalog No. D8418, Sigma-Aldrich, Inc., St. Louis, MO, USA) to generate 10 mM stock solutions, which were serially diluted (half log) in DMSO to generate an 11-point dose series (1000× final treatment concentration) in a 384-Well Low Dead Volume Microplate (Catalog No. LP-0200, Labcyte, San Jose, CA, USA). Using the Echo 550 Acoustic Liquid Handler (Labcyte), 50 nL of serially diluted compound solutions were dispensed in duplicate to 384-well TC-treated microplates (Catalog No. 3571, Corning, Glendale, CA, USA) and 50 nL of DMSO was dispensed to control wells. A375-NRAS^Q61K cells were resuspended in growth media and added to 384-well plates containing a […] of compounds in duplicate (maximum 10 μM concentration for final treatment) at a density of 250 cells/well in 50 μl. Cells were also plated to a 384-well plate with no compound treatment, to which CellTiter-Glo® reagent was added and luminescence was read right after plating to act as a baseline signal at time of plating (To). Plates treated with compound were then spun briefly, and cells were incubated with compound at 37° C. for 96 hours.
After 96 hours compound treatment, CellTiter-Glo® reagent was added to the cells at 25 μl per well and luminescence was read out on the PHERAstar plate reader (BMG Labtech, Ortenberg, Germany). Cells treated with DMSO only (no test compound treatment) were used as the negative control (N). DMSO treated cells with no CellTiter-Glo® reagent added were used as the background or positive control (P). Viability was determined by subtracting out the average background signal (P) and normalized to the average untreated signal (N) set at 100%.
Data were analyzed with a 4-parameter logistic fit to generate sigmoidal dose-response curves. The half-maximal inhibition of cell growth (GI50) is the concentration at which the fitted curve crosses 50%. The Emax, or maximum effect of each compound, represents the lowest % viability achieved following compound treatment.

[3] = A375.10 cells, BRAF V600E, 2 hours, inflection point, read-out: HiBiT-Degradation A375.10 BRAF 2 hours IP
[4] = A375.10 cells, BRAF V600E, 2 hours, read-out: HiBiT-Degradation A375.10 BRAF 2 hours DC50
[5] = A375.10 cells, BRAF V600E, 2 hours, residual protein remaining, read-out: HiBiT-Degradation A375.10 BRAF 2 hours Emax
[6] = A375.10 cells, BRAF V600E, 6 hours, inflection point, read-out: HiBiT-Degradation A375.10 BRAF 6 hours IP
[7] = A375.10 cells, BRAF V600E, 6 hours, read-out: HiBiT-Degradation A375.10 BRAF 6 hours DC50
[8] = A375.10 cells, HiBiT, BRAF V600E, 24 hours, read-out: HiBiT-Degradation A375.10 BRAF 24 hours DC50
[9] = A375.10 cells, HiBiT, BRAF V600E, 24 hours, read-out: HiBiT-Degradation A375.10 BRAF 24 hours IP
[10] = A375.10 cells, HiBiT, BRAF V600E, 24 hours, read-out: HiBiT-Degradation A375.10 BRAF 24 hours Emax

SMILES	DC50 [1, 3] [nM]	DC50 [1, 4] [nM]	Emax [1, 5] [%]	GI50 [2] [nM]	Emax ([2]; Homo sapiens, 96 h) [%]	HiBiT-Degradation A375.10 BRAF 2 hours Emax ([1]; A375.10 cells, BRAF V600E, 2 hours, residual protein remaining)	DC50 [1, 6] [nM]	DC50 [1, 7] [nM]	HiBiT-Degradation A375.10 BRAF 6 hours Emax ([1]; A375.10 cells, BRAF V600E, 6 hours, residual protein remaining)	HiBiT-Degradation A375.10 BRAF 24 hours Emax ([1]; A375.10 cells, HiBiT, BRAF V600E, 24 hours)	DC50 [1, 8] [nM]	DC50 [1, 9] [nM]	CTGlo A375.11 96 hours Emax [2]	GI50 ([2]; Homo sapiens, 96 h) [nM]	HiBiT-Degradation A375.10 BRAF 2 hours Emax [1]	Emax [1, 10] [%]	Emax ([1]; read-out: HiBiT-Degradation A375.10 BRAF 2 hours Emax, A375.10 cells, BRAF V600E, 2 hours, residual protein remaining) [%]	Emax ([1]; A375.10 cells, BRAF V600E, 6 hours, residual protein remaining, read-out: HiBiT-Degradation A375.10 BRAF 6 hours Emax) [%]
CCN(C)S(=O)(=O)Nc1ccc(F)c(Oc2ccc3ncn([C@H]4COC5(C4)CN(C4CCC(c6cc7c(cc6F)c(N6CCC(=O)NC6=O)nn7C)CC4)C5)c(=O)c3c2)c1C#N (single isomer, unassigned) [Compound 235]	< 1000	1000 to 10000	< 50	> 10000	50 to 90													
CCN(C)S(=O)(=O)Nc1ccc(F)c(Oc2ccc3ncn([C@H]4COC5(CCN(C6CCC(c7cc8c(cc7F)c(N7CCC(=O)NC7=O)nn8C)CC6O)CC5)C4)c(=O)c3c2)c1C#N (single isomer, unassigned) [Compound 45]	< 1000	< 1000		< 1000		*** (<=50%)	< 1000	< 1000	*** (<=50%)	*** (<=50%)	< 1000	< 1000	*** (<=50%)					
CCN(C)S(=O)(=O)Nc1ccc(F)c(Oc2ccc3ncn(CC4CCN(C5CCN(c6cc7c(cc6F)c(N6CCC(=O)NC6=O)nn7C)CC5)CC4)c(=O)c3c2)c1C#N [Compound 264, 6-[2-cyano-3-[[ethyl(methyl)sulfamoyl]amino]-6-fluoro-phenoxy]-3-[[1-[1-[3-(2,4-dioxohexahydropyrimidin-1-yl)-5-fluoro-1-methyl-indazol-6-yl]-4-piperidyl]-4-piperidyl]methyl]-4-oxo-quinazoline]	< 1000	< 1000	< 50		50 to 90									1000 to 10000				
CN(CCO)S(=O)(=O)Nc1ccc(F)c(Oc2ccc3ncc([C@H]4COC5(CCN(C6CCC(c7cc8c(cc7F)c(N7CCC(=O)NC7=O)nn8C)CC6)CC5)C4)nc3c2)c1C#N (single isomer, unassigned) [Compound 176]	< 1000	< 1000	< 50		50 to 90									< 1000				
CCN(C)S(=O)(=O)Nc1ccc(F)c(Oc2ccc3ncc(OC4CC5(CCN(C6CCC(c7cc8c(cc7F)c(N7CCC(=O)NC7=O)nn8C)CC6)CC5)C4)nc3c2)c1C#N (single isomer, unassigned) [Compound 219, 7-[2-cyano-3-[[ethyl(methyl)sulfamoyl]amino]-6-fluoro-phenoxy]-2-[[7-[4-[3-(2,4-dioxohexahydropyrimidin-1-yl)-5-fluoro-1-methyl-indazol-6-yl]cyclohexyl]-7-azaspiro[3.5]nonan-2-yl]oxy]quinoxaline]	< 1000	< 1000		> 10000									*** (<=50%)		** (<90% and >50%)			
CCN(C)S(=O)(=O)Nc1ccc(F)c(Oc2ccc3ncn(C4CC5(C4)CN(C4CCC(c6cc7c(cc6F)c(N6CCC(=O)NC6=O)nn7C)CC4F)C5)c(=O)c3c2)c1C#N (single isomer, unassigned) [Compound 299]	< 1000	1000 to 10000			50 to 90						< 1000	< 1000		1000 to 10000		< 50	50 to 90	
CCN(C)S(=O)(=O)Nc1ccc(F)c(Nc2ccc3ncn([C@H]4COC5(CCN(C6CCC(c7ccc(NC8CCC(=O)NC8=O)cc7F)CC6)CC5)C4)c(=O)c3c2F)c1C#N (single isomer, unassigned) [Compound 98]							< 1000	< 1000			< 1000	< 1000				< 50		< 50
